# Test results published in PMC5537347, “A short D-enantiomeric antimicrobial peptide with potent immunomodulatory and antibiofilm activity against multidrug-resistant Pseudomonas aeruginosa and Acinetobacter baumannii” (Scientific Reports, 2017).
# Read-outs that look alike come from different tables or passages of the source.
# Key:
# [1] = system: intracellular A. baumannii ATCC 19606; assay type: cell-based; details: ATCC 19606, 24 h, 8
# Method: (§1) Figure 2 Intracellular antibacterial activity of peptides in infected murine macrophage cells (J774A.1). […] Statistical analysis was calculated using one-way ANOVA, with post hoc Tukey’s multiple comparisons test. P < 0.05 was considered significant. One asterisk (*) indicates significance from the negative control. Results are expressed as means from three biological replicates ± standard deviation.
# (§2) In order to assess the peptides’ ability to kill intracellular bacteria, murine macrophages (J774A.1) were infected, as described in previous studies[31]–[33], [42], [48]–[51]. Briefly, J774A.1 cells were seeded and incubated as described above for the toxicity assessment. Following incubation, cells were infected with either P. aeruginosa PAO1 or A. baumannii ATCC 19606 (multiplicity of infection 100:1) in DMEM + 10% FBS for two hours. After infection, the wells were washed with 200 µL of media containing gentamicin (50 µg/ml) and further incubated for 30 minutes with gentamicin to kill extracellular bacteria. […] Medium alone was used as a negative control. After incubation, the media was aspirated and washed twice with PBS to remove any residual test agent. Next, 100 µL of PBS containing 0.01% triton X-100 was added to lyse the J774 cells. Subsequently, bacteria were diluted and plated on TSA plates. Plates were incubated at 37 °C for 16 hours. After incubation, bacteria were enumerated and analyzed. The experiment was repeated twice. The average percent reduction of bacterial growth for each treatment regimen has been reported.
# [2] = system: intracellular P. aeruginosa PAO1; assay type: cell-based; details: PAO1, 24 h, 8
# Method: as §1, §2
# [3] = system: human keratinocytes (HaCaT cells); test: Cytotoxicity, MTS assay; details: for EC50: 24 h
# Method: (§3) A significant limitation for translating AMPs into clinical applications is their toxicity to host (mammalian) cells. Herein, we evaluated the cytotoxic effects of our peptide constructs against murine macrophages (J774.1A) and human keratinocytes (HaCaT cells), via the MTS assay.
# (§4) The peptides were assayed for potential in vitro toxicity against human keratinocytes (HaCaT) and murine macrophage cells (J774A.1), as described before, with the following modifications. Cells were treated with peptides at different concentrations for 24 hours. The therapeutic index of the peptides was calculated as the ratio of mammalian EC50 (the concentration of peptide that inhibited growth of 50% of the mammalian cells) to the MIC50 of peptides against bacteria.
# [4] = system: murine macrophages (J774.1A); test: Cytotoxicity, MTS assay; details: for EC50: 24 h
# Method: as §3, §4
# human red blood cells = test: Hemolysis assay; assay type: cell-based; details: for HC50: red cells of human
# Method: Next, we assessed the hemolytic activity of the peptides on human red blood cells (RBCs).
# Peptides were assayed for hemolytic activity against human red blood cells, as described previously.
# [5] = system: C. elegans strain glp-4;sek 1; test: Toxicity of peptides in uninfected C. elegans; assay type: in vivo, Caenorhabditis elegans; details: worms grown four days with peptide; D-RR4 and colistin at 8 × MIC
# Method: To test the efficacy of the synthetic peptides to protect against infections in vivo, we utilized a C. elegans model of bacterial infection. This model has been used extensively for early-stage evaluation of promising antimicrobials, [35], [36]. Initially, the lethal dose of D-RR4 against uninfected nematodes was determined.
# (A) Evaluation of toxicity of peptides in Caenorhabditis elegans. C. elegans strain glp-4;sek 1 was grown for four days in the presence of peptides at different concentrations. Worms were monitored daily and the live worms were counted. Results are expressed as a Kaplan-Meier survival curve. (B) Evaluation of antimicrobial activity of peptides to reduce the bacterial CFU inside infected Caenorhabditis elegans. C. elegans strain glp-4; sek 1 were infected with P. aeruginosa PAO1, colistin-resistant P. aeruginosa 1109, or A. baumannii ATCC BAA-1605. […] After treatment, worms were lysed and bacteria were counted. One asterisk (*) indicates significant difference with the negative control. Two asterisks (**) indicates significant difference with the monotherapy treatment (P < 0.05). Results are expressed as means from three biological replicates ± standard deviation. (C) Efficacy of peptides in a Caenorhabditis elegans model of bacterial infection. […] Worms were monitored daily and the live worms were counted. Results are expressed as a Kaplan-Meier survival curve. C. elegans receiving no treatment served as a negative control.
# [6] = system: colistin-resistant P. aeruginosa isolated from cystic fibrosis patients
# From the text: (§5) The broth microdilution technique was utilized to assess the MIC of designed peptides according to the guidelines of the Clinical and Laboratory Standards Institute (CLSI)[37].
# [7] = system: P. aeruginosa and A. baumannii isolates
# From the text: as §5
# P. aeruginosa PAO1 [8] = test: Inner (cytoplasmic) membrane permeabilization assay (propidium iodide); assay type: cell-based; details: D-RR4 5 × and 10 × MIC, LL-37 10 × MIC
# Method: Damage of the bacterial inner (cytoplasmic) membrane by peptides was monitored by measuring the fluorescence intensity of P. aeruginosa PAO1 combined with propidium iodide and then subsequently treated with D-RR4.
# Damage of the bacterial inner (cytoplasmic) membrane after exposure to peptides was evaluated using propidium iodide, as described elsewhere[47].
# Data are presented as means ± standard error of the means
# indicated by propidium iodide fluorescence.
# Each experiment was performed in duplicate, and the
# values represent means ± standard deviation.
# A. baumannii = assay type: cell-based
# P. aeruginosa PAO1 [9] = test: MIC after treatment with proteases; assay type: cell-based; details: 50 mM Tris-HCl pH 7.4, 37 °C, four hours
# Method: To examine the ability of peptides to resist proteolytic digestion by mammalian and bacterial proteases, RR4 and D-RR4 were incubated with trypsin or proteinase K at a molar ratio of 500: 1 (peptide: enzyme), respectively, in digestion buffer (50 mM Tris–HCl, pH 7.4) at 37 °C for four hours, as described previously.
# [10] = system: A. baumannii ATCC BAA-1605 biofilm; test: Disruption of established biofilms, microtiter dish crystal violet assay; assay type: cell-based; details: mature (24 hour) biofilm
# Method: (§6) Figure 1 Efficacy of peptides on established biofilms of P. aeruginosa PAO1 and A. baumannii ATCC BAA-1605. […] After incubation, wells were washed and biofilms were stained with 0.5% (w/v) crystal violet for 30 minutes. The dye was solubilized with ethanol (95%) and the optical density (595 nm) of the biofilm mass was measured. Experiments were repeated twice independently and the average values are reported.
# (§7) To examine the peptides’ ability to disrupt bacterial biofilms, the microtiter dish biofilm formation assay was employed[41]–[43].
# [11] = system: P. aeruginosa PAO1 biofilm; test: as above; assay type: cell-based; details: for biofilm mass disrupted: mature (24 hour) biofilm, 24 hours at 37 °C, crystal violet OD 595 nm
# Method: as §6, §7
# [12] = colistin-resistant isolated from cystic fibrosis patients
# [13] = colistin-resistant isolates of Table 3
compound,measurement,setting,value
CC[C@@H](C)[C@@H](NC(=O)[C@@H](CCCNC(=N)N)NC(=O)[C@@H](CCCNC(=N)N)NC(=O)[C@@H](CC(C)C)NC(=O)[C@@H](Cc1c[nH]c2ccccc12)NC(=O)[C@@H](C)NC(=O)[C@@H](CCCCN)NC(=O)[C@H](NC(=O)[C@@H](CCCNC(=N)N)NC(=O)[C@@H](CCCNC(=N)N)NC(=O)[C@@H](CC(C)C)NC(=O)[C@H](N)Cc1c[nH]c2ccccc12)[C@H](C)CC)C(=O)N[C@H](CCCCN)C(=O)N[C@H](C)C(N)=O [D-RR4],intracellular bacteria killed,[1],100.00% ± 0.00
same,intracellular bacteria killed,[2],96.00% ± 1.15
same,EC50,[3],64 µM
same,Therapeutic index (TI),"[3]; EC50 (HaCaT) over MIC50, 512 µM used where no cytotoxicity at […]",32
same,EC50,[4],64 µM
same,Therapeutic index (TI),"[4]; EC50 (J774.1) over MIC50, 512 µM used where no cytotoxicity at […]",32
same,Therapeutic index (TI) RBCs,human red blood cells; HC50 over MIC50,128
same,HC50,human red blood cells,256 µM
same,toxicity to uninfected worms,[5],not toxic
same,MIC50,[6]; [12],4 µM
same,MIC90,[6]; [12],16 µM
same,MIC50,[7],2 µM
same,MIC90,[7],4 µM
same,MIC against all tested bacterial strains,[7],2 to 8 µM
"CC[C@H](C)[C@H](NC(=O)[C@H](CCCCN)NC(=O)[C@H](CCC(=O)O)NC(=O)[C@H](CCCCN)NC(=O)[C@H](CO)NC(=O)[C@H](CCCCN)NC(=O)[C@H](CCCNC(=N)N)NC(=O)[C@H](Cc1ccccc1)NC(=O)[C@H](Cc1ccccc1)NC(=O)[C@H](CC(=O)O)NC(=O)CNC(=O)[C@H](CC(C)C)NC(=O)[C@@H](N)CC(C)C)C(=O)NCC(=O)N[C@@H](CCCCN)C(=O)N[C@@H](CCC(=O)O)C(=O)N[C@@H](Cc1ccccc1)C(=O)N[C@@H](CCCCN)C(=O)N[C@@H](CCCNC(=N)N)C(=O)N[C@H](C(=O)N[C@H](C(=O)N[C@@H](CCC(N)=O)C(=O)N[C@@H](CCCNC(=N)N)C(=O)N[C@H](C(=O)N[C@@H](CCCCN)C(=O)N[C@@H](CC(=O)O)C(=O)N[C@@H](Cc1ccccc1)C(=O)N[C@@H](CC(C)C)C(=O)N[C@@H](CCCNC(=N)N)C(=O)N[C@@H](CC(N)=O)C(=O)N[C@@H](CC(C)C)C(=O)N[C@H](C(=O)N1CCC[C@H]1C(=O)N[C@@H](CCCNC(=N)N)C(=O)N[C@H](C(=O)N[C@@H](CCC(=O)O)C(=O)N[C@@H](CO)C(=O)O)[C@@H](C)O)C(C)C)[C@@H](C)CC)C(C)C)[C@@H](C)CC [LL-37, reference compound]",propidium iodide fluorescence (inner membrane damage),P. aeruginosa PAO1 [8],rapid and significant increase in fluorescence
same,MIC,A. baumannii; strain ATCC 19606,2 µM
same,MIC,A. baumannii; strain ATCC BAA-747,8 µM
same,MIC,A. baumannii; strain ATCC BAA-1605,4 µM
same,MIC,A. baumannii; strain NR-9667,4 µM
same,MIC,A. baumannii; strain NR-13374,4 µM
same,MIC,A. baumannii; strain NR-13375,4 µM
same,MIC,A. baumannii; strain NR-13382,4 µM
same,MIC,A. baumannii; strain NR-17777,4 µM
same,MIC,A. baumannii; strain NR-17778,4 µM
same,MIC,A. baumannii; strain NR-17780,4 µM
same,MIC,A. baumannii; strain NR-17783,4 µM
same,MIC,A. baumannii; strain NR-17784,4 µM
same,MIC,A. baumannii; strain NR-17785,4 µM
same,MIC,A. baumannii; strain NR-17786,4 µM
same,MIC,A. baumannii; strain NR-19298,2 µM
same,MIC,A. baumannii; strain NR-19299,8 µM
same,MIC50,[6]; [13],64 µM
same,MIC90,[6]; [13],>128 µM
same,MIC,[6]; strain 1015,>128 µM
same,MIC,[6]; strain 1016,>128 µM
same,MIC,[6]; strain 1017,>128 µM
same,MIC,[6]; strain 1020,32 µM
same,MIC,[6]; strain 1109,64 µM
same,MIC,[6]; strain 1125,128 µM
same,MIC,[6]; strain 1131,16 µM
same,MIC,[6]; strain 1133,32 µM
same,MIC,[6]; strain 1571,16 µM
same,MIC,[6]; strain 1603,32 µM
same,MIC,[6]; strain 16011,>128 µM
same,MIC50,[7]; MIC that inhibited growth of 50% of all isolates (Table 2),4 µM
same,MIC90,[7]; MIC that inhibited growth of 90% of all isolates (Table 2),32 µM
CC[C@H](C)[C@H](NC(=O)[C@H](CCCNC(=N)N)NC(=O)[C@H](CCCNC(=N)N)NC(=O)[C@H](CC(C)C)NC(=O)[C@H](Cc1c[nH]c2ccccc12)NC(=O)[C@H](C)NC(=O)[C@H](CCCCN)NC(=O)[C@@H](NC(=O)[C@H](CCCNC(=N)N)NC(=O)[C@H](CCCNC(=N)N)NC(=O)[C@H](CC(C)C)NC(=O)[C@@H](N)Cc1c[nH]c2ccccc12)[C@@H](C)CC)C(=O)N[C@@H](CCCCN)C(=O)N[C@@H](C)C(=O)O [RR4],intracellular bacteria killed,[1],25.00% ± 8.90
same,intracellular bacteria killed,[2],14.60% ± 5.50
same,EC50,[3],128 µM
same,EC50,[4],64 µM
same,Therapeutic index (TI) RBCs,human red blood cells,64
same,HC50,human red blood cells,256 µM
same,MIC,P. aeruginosa PAO1 [9]; after Proteinase K 1:500 (peptide:enzyme 500:1),> 64 µM
same,MIC,P. aeruginosa PAO1 [9]; after Trypsin 1:500 (peptide:enzyme 500:1),> 64 µM
same,biofilm-disrupting activity,[10],concentration-dependent activity
same,biofilm mass reduced,"[11]; 0.5× to 1 × MIC, respectively",20–35%
same,biofilm mass disrupted,[11]; 4 × MIC,more than 31%
same,biofilm mass disrupted,[11]; 8 × MIC,> 39%
same,biofilm mass disrupted,[11]; 16 × MIC,> 41%
same,biofilm mass disrupted,[11]; 32 × MIC,> 61%
same,MIC50,[6]; [12],8 µM
same,MIC90,[6]; [12],32 µM
same,MIC50,[7],4 µM
same,MIC90,[7],8 µM
same,improvement in the MIC over RR,[7]; MIC50 and MIC90,16 fold
